Test results taken from PubChem BioAssay AID1259408 (Genetic Toxicology Data Bank (GENE-TOX), 2018).
Active and inactive are the calls of the source. No rule for the calls is given here.

Tested on: GENE-TOX genotoxicity assays, various organisms and cells
Experiment: GENE-TOX mutagenicity studies
Conditions: for call: Assay Type: In vivo carcinogenicity studies
[1] = Species/Cell Type: Human, Assay Type: Sister-chromatid exchange (SCE) in vitro, Assay Code: SC1+D, Dose Response: With dose response, Evaluation Type: Evaluation B (Post-1980)
[2] = Species/Cell Type: Chinese hamster lung (V79) cells, Assay Type: Forward gene mutation at the HPRT or ouabain locus, Assay Code: V79+, Evaluation Type: Evaluation A (Pre-1980)
[3] = Species/Cell Type: Nonhuman, Assay Type: Sister-chromatid exchange (SCE) in vivo, Assay Code: SC3+, Evaluation Type: Evaluation B (Post-1980)
[4] = Species/Cell Type: Neurospora crassa, Assay Type: Forward gene mutation, Assay Code: NEF+, Evaluation Type: Evaluation A (Pre-1980)
[5] = Species/Cell Type: Saccharomyces cerevisiae, Assay Type: Reverse gene mutation, Assay Code: YER+, Evaluation Type: Evaluation A (Pre-1980)
[6] = Species/Cell Type: Drosophila melanogaster, Assay Type: Sex-linked recessive lethal gene mutation, Assay Code: SRL+, Evaluation Type: Evaluation A (Pre-1980)
[7] = Species/Cell Type: Human diploid fibroblasts, Assay Type: Unscheduled DNA synthesis (UDS) in vitro, DNA effects, Assay Code: UDHT, Evaluation Type: Evaluation A (Pre-1980)
[8] = Species/Cell Type: Nonhuman, Assay Code: CCG+, Evaluation Type: Evaluation A (Pre-1980)
[9] = Species/Cell Type: Salmonella typhimurium (one or more of the five standard strains: TA98, TA100, TA1535, TA1537, and TA1538), Assay Type: Histidine reverse gene mutation, Ames assay, Assay Code: SAL+*, Activation: With metabolic activation, Evaluation Type: Evaluation A (Pre-1980)
[10] = Species/Cell Type: Syrian hamster embryo (SA7/SHE) cells, Assay Type: Cell transformation, viral enhanced, Assay Code: CT7+, Evaluation Type: Evaluation A (Pre-1980)
[11] = Species/Cell Type: Drosophila melanogaster, Assay Type: Sex-linked recessive lethal gene mutation, Assay Code: SRLT, Evaluation Type: Evaluation A (Pre-1980)

## O=S(=O)(O)c1ccc(N=Nc2ccc(N=Nc3c(O)c(S(=O)(=O)O)cc4cc(S(=O)(=O)O)ccc34)c(S(=O)(=O)O)c2)cc1
Species/Cell Type: Salmonella typhimurium (one or more of the five standard strains: TA98, TA100, TA1535, TA1537, and TA1538), Assay Type: Histidine reverse gene mutation, Ames assay, Assay Code: SALT, Evaluation Type: Evaluation A (Pre-1980)
  mutagenic call: no conclusion

## O=C[C@H](O)[C@@H](O)[C@H](O)[C@H](O)CO
Species/Cell Type: Mammalian polychromatic erythrocytes, Assay Type: Micronucleus test, chromosome aberrations, Assay Code: MNTT, Evaluation Type: Evaluation A (Pre-1980)
  mutagenic call: no conclusion
Species/Cell Type: Mouse, Sex: Male, Assay Type: Sperm morphology, Assay Code: SPI-, Evaluation Type: Evaluation A (Pre-1980)
  mutagenic call: inactive; negative

## COC(=O)NC(=S)Nc1ccccc1N
Species/Cell Type: Aspergillus nidulans, Assay Type: Aneuploidy, chromosome aberrations, Assay Code: ASN+, Evaluation Type: Evaluation A (Pre-1980)
  mutagenic call: active; positive
Species/Cell Type: Aspergillus nidulans, Assay Type: Mitotic recombination, Assay Code: ASG-, Evaluation Type: Evaluation A (Pre-1980)
  mutagenic call: inactive; negative

## O=c1[nH]c(=O)n([C@H]2C[C@H](O)[C@@H](CO)O2)cc1/C=C/I
[1]
  mutagenic call: active; positive

## NC(=O)N(CCCl)N=O
[2]
  mutagenic call: active; positive

## Clc1cccc(Cl)c1Cl
Species/Cell Type: Mammalian polychromatic erythrocytes, Assay Type: Micronucleus test, chromosome aberrations, Assay Code: MNT+, Evaluation Type: Evaluation B (Post-1980)
  mutagenic call: active; positive

## Cc1ccc(OC(=O)N(C)N=O)cc1C
Species/Cell Type: Bacillus subtilis (H17 vs M45T), Assay Type: Rec-assay, spot test, DNA effects (bacterial DNA repair), Assay Code: REX+, Evaluation Type: Evaluation A (Pre-1980)
  mutagenic call: active; positive
Species/Cell Type: Escherichia coli WP2, Assay Type: Tryptophan reverse gene mutation, Assay Code: WP2+, Evaluation Type: Evaluation A (Pre-1980)
  mutagenic call: active; positive

## NNc1cc2c(nn1)CCN(C(=O)c1ccccc1)C2
[3]
  mutagenic call: active; positive

## C(CCC1CO1)CC1CO1 (stereo not drawn)
[4]
  mutagenic call: active; positive
Species/Cell Type: Salmonella typhimurium (one or more of the five standard strains: TA98, TA100, TA1535, TA1537, and TA1538), Assay Type: Histidine reverse gene mutation, Ames assay, Assay Code: SAL+, Evaluation Type: Evaluation A (Pre-1980)
  mutagenic call: active; positive

## CCC(=O)N(C)N=O
[5]
  mutagenic call: active; positive

## CC(=O)OCN(C)N=O
Species/Cell Type: Salmonella typhimurium, Assay Type: Forward and reverse gene mutation, host-mediated assay, Assay Code: HMA+, Evaluation Type: Evaluation A (Pre-1980)
  mutagenic call: active; positive

## NC(=O)c1ccc(/C=C/c2ccc([N+](=O)[O-])o2)cc1
[6]
  mutagenic call: active; positive
[4]
  mutagenic call: active; positive
Species/Cell Type: Neurospora crassa, Assay Type: Reverse gene mutation, Assay Code: NER+, Evaluation Type: Evaluation A (Pre-1980)
  mutagenic call: active; positive
Species/Cell Type: Saccharomyces cerevisiae, Assay Type: Mitotic recombination or gene conversion, Assay Code: YEH+, Evaluation Type: Evaluation A (Pre-1980)
  mutagenic call: active; positive
[5]
  mutagenic call: active; positive

## c1ccc2c(c1)ccc1cc3c(ccc4ccccc43)cc12
Species/Cell Type: Chinese hamster lung (V79) cells, Assay Type: Forward gene mutation at the HPRT or ouabain locus, Assay Code: V79+*, Activation: With metabolic activation, Evaluation Type: Evaluation A (Pre-1980)
  mutagenic call: active; positive
[6]
  mutagenic call: active; positive
Species/Cell Type: Fischer rat embryo (RLV/1706) cells, Assay Type: Cell transformation, viral enhanced, Assay Code: CTR+, Evaluation Type: Evaluation A (Pre-1980)
  mutagenic call: active; positive
Species/Cell Type: Fischer rat embryo (SA7/RE) cells, Assay Type: Cell transformation, viral enhanced, Assay Code: CTA+, Evaluation Type: Evaluation A (Pre-1980)
  mutagenic call: active; positive
[7]
  mutagenic call: no conclusion
Species/Cell Type: Mouse (BALB/c-3T3) cells, Assay Type: Cell transformation, Assay Code: CTB+, Evaluation Type: Evaluation A (Pre-1980)
  mutagenic call: active; positive
Species/Cell Type: Mouse (C3H/10T1/2) cells, Assay Type: Cell transformation, Assay Code: CTH+, Evaluation Type: Evaluation A (Pre-1980)
  mutagenic call: active; positive
Species/Cell Type: Mouse embryo (AKR/ME) cells, Assay Type: Cell transformation, Assay Code: CTK+, Evaluation Type: Evaluation A (Pre-1980)
  mutagenic call: active; positive
Species/Cell Type: Mouse prostate cells, Assay Type: Cell transformation, Assay Code: CTMT, Evaluation Type: Evaluation A (Pre-1980)
  mutagenic call: no conclusion
[4]
  mutagenic call: active; positive
[8]
  call: active; positive
Species/Cell Type: Nonhuman, Assay Type: Sister-chromatid exchange (SCE) in vivo, Assay Code: SC3T, Evaluation Type: Evaluation A (Pre-1980)
  mutagenic call: no conclusion
[9]
  mutagenic call: active; positive
[10]
  mutagenic call: active; positive
Species/Cell Type: Syrian hamster embryo (SHE) cells, Assay Type: Cell transformation, clonal assay, Assay Code: CTC+D, Dose Response: With dose response, Evaluation Type: Evaluation A (Pre-1980)
  mutagenic call: active; positive
Species/Cell Type: Syrian hamster embryo (SHE) cells, Assay Type: Cell transformation, focus assay, Assay Code: CTF+, Evaluation Type: Evaluation A (Pre-1980)
  mutagenic call: active; positive

## CCCN(CCC)N=O
[2]
  mutagenic call: active; positive
[7]
  mutagenic call: no conclusion
[8]
  call: active; positive
[3]
  mutagenic call: active; positive
[9]
  mutagenic call: active; positive
[10]
  mutagenic call: active; positive

## ClCC1OC1CCl (stereo not drawn)
[6]
  mutagenic call: active; positive

## CCS(=O)CCSP(=S)(OC)OC (stereo not drawn)
[11]
  mutagenic call: no conclusion

## ClC(Cl)=C(c1ccc(Cl)cc1)c1ccc(Cl)cc1
[2]
  mutagenic call: active; positive
[11]
  mutagenic call: no conclusion
Species/Cell Type: Escherichia coli polA (W3119 vs P3478), Assay Type: Rec-assay, DNA effects (bacterial DNA repair), Assay Code: RE1T, Evaluation Type: Evaluation A (Pre-1980)
  mutagenic call: no conclusion
Species/Cell Type: Mouse lymphoma (L5178Y) cells, Assay Type: Forward gene mutation at the thymidine kinase (TK) locus, chromosome aberrations, Assay Code: L51+/-*, Activation: With metabolic activation, Evaluation Type: Evaluation A (Pre-1980)
  mutagenic call: inactive; positive without activation, negative with activation
Species/Cell Type: Nonhuman, Assay Type: Chromosome aberrations in vitro, Assay Code: CY&+, Evaluation Type: Evaluation A (Pre-1980)
  mutagenic call: active; positive
Species/Cell Type: Nonhuman, Assay Code: CCG+L, Evaluation Type: Evaluation A (Pre-1980)
  call: active; positive
Species/Cell Type: Saccharomyces cerevisiae, Assay Type: Mitotic recombination or gene conversion, Assay Code: YEH-, Evaluation Type: Evaluation A (Pre-1980)
  mutagenic call: inactive; negative
Species/Cell Type: Salmonella typhimurium (one or more of the five standard strains: TA98, TA100, TA1535, TA1537, and TA1538), Assay Type: Histidine reverse gene mutation, Ames assay, Assay Code: SAL-, Evaluation Type: Evaluation A (Pre-1980)
  mutagenic call: inactive; negative
Species/Cell Type: Salmonella typhimurium, Serratia marcesens, Assay Type: Forward and reverse gene mutation, host-mediated assay, Assay Code: HM2-, Evaluation Type: Evaluation A (Pre-1980)
  mutagenic call: inactive; negative

## O=S(O)O
Species/Cell Type: Escherichia coli WP2 UVRA, Assay Type: Tryptophan reverse gene mutation, Assay Code: WPU-*, Activation: With metabolic activation, Evaluation Type: Evaluation A (Pre-1980)
  mutagenic call: inactive; negative
Species/Cell Type: Mouse, Sex: Male, Assay Type: Heritable translocation test, chromosome aberrations, Assay Code: HTT-, Evaluation Type: Evaluation A (Pre-1980)
  mutagenic call: inactive; negative
Species/Cell Type: Mouse, Sex: Male, Assay Type: Specific locus test, gene mutation, Assay Code: SLT-, Evaluation Type: Evaluation A (Pre-1980)
  mutagenic call: inactive; negative
Species/Cell Type: Nonhuman, Assay Type: Sister-chromatid exchange (SCE) in vitro, Assay Code: SC2+D, Dose Response: With dose response, Evaluation Type: Evaluation B (Post-1980)
  mutagenic call: active; positive
Species/Cell Type: Rodents, Sex: Male, Assay Type: Dominant lethal test, Assay Code: DLT-, Evaluation Type: Evaluation A (Pre-1980)
  mutagenic call: inactive; negative
[5]
  mutagenic call: active; positive

## C=Cc1cccc(C)c1
Species/Cell Type: Human lymphocytes, Assay Type: Sister-chromatid exchange (SCE) in vitro, Assay Code: SCL+D, Dose Response: With dose response, Evaluation Type: Evaluation B (Post-1980)
  mutagenic call: active; positive
[1]
  mutagenic call: active; positive

## O=C1CCCCCN1
Species/Cell Type: Chinese hamster ovary (CHO) cells, Assay Type: Forward gene mutation at the HPRT locus, Assay Code: CHO-, Evaluation Type: Evaluation B (Post-1980)
  mutagenic call: inactive; negative
Species/Cell Type: Nonhuman, Assay Code: CCG-, Evaluation Type: Evaluation A (Pre-1980)
  call: inactive; negative
